{"source": "patent US7220775B2", "about": "“Compound useful for the treatment of neuropathic pain” (H. Lundbeck A/S, priority 2002, dated 2007)", "key": {"[1]": {"biological_target": "T1, Human 5HT1F receptor (Homo sapiens, UniProt P30939)", "T1 construct": "expressed in transfected cells", "T1 sequence (P30939 whole entry)": "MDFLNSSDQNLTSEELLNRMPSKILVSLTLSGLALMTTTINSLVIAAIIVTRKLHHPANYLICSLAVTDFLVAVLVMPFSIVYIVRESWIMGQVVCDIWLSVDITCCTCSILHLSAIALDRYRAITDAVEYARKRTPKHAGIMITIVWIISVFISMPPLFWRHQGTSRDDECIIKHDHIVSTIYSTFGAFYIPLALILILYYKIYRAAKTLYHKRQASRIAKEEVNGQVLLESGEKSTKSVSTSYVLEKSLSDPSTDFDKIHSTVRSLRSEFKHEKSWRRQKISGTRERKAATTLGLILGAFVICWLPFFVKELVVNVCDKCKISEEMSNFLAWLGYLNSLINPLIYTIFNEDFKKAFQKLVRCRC", "experiment": "5HT1F receptor binding ([3H]-serotonin)", "conditions": "Table 8", "method": "(§1) Human 5HT1B, 5HT1D, 5HT1E, 5HT1F, and 5HT7 Receptors: The cell lysates of LM(tk−) clonal cell line stably transfected with the genes encoding each of these 5HT receptor-subtypes were prepared as described above. Cell membranes were suspended in 50 mM Tris-HCl buffer (pH 7.4 at 37° C.) containing 10 mM MgCl2, 0.2 mM EDTA, 10 µM pargyline, and 0.1% ascorbate. […] Nonspecific binding was determined in the presence of 10 μM serotonin. The bound radioligand was separated by filtration through GF/B filters using a cell harvester."}, "[2]": {"biological_target": "T2, Human 5HT1E receptor (Homo sapiens, UniProt P28566)", "T2 construct": "expressed in transfected cells", "T2 sequence (P28566 whole entry)": "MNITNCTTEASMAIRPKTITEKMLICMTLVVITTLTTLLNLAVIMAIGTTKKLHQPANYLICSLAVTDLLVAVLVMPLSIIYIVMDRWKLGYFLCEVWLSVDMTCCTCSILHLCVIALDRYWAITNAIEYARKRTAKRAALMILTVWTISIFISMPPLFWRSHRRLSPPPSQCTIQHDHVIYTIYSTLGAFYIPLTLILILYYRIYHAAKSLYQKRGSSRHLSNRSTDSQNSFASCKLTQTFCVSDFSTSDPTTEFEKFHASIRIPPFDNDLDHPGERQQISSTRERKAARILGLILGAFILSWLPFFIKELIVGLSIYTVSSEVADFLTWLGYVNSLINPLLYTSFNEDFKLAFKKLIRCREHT", "experiment": "5HT1E receptor binding ([3H]-serotonin)", "conditions": "Table 8", "method": "as §1"}, "[3]": {"biological_target": "T3, DA transporter (rDA Uptk) (Rattus norvegicus, UniProt P23977)", "T3 construct": "native, tissue-derived transporters; from tissue", "T3 sequence (P23977 whole entry)": "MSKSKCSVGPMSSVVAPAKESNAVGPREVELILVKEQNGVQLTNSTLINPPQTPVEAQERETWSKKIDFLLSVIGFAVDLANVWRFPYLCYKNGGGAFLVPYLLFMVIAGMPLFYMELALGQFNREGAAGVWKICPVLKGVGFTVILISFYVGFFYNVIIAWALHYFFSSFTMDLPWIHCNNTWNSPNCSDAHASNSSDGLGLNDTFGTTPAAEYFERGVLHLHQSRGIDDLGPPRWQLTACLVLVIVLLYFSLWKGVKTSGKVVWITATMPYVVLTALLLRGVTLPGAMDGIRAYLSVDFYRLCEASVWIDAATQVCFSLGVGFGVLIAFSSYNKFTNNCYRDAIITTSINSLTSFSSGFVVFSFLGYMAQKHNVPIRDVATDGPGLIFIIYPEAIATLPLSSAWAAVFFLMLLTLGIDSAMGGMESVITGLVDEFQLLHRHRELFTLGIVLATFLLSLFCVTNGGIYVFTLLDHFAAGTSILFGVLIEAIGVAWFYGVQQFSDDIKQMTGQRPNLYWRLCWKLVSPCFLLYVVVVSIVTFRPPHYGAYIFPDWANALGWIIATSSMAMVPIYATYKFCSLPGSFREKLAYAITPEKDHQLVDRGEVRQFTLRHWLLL", "experiment": "Binding at native DA transporter", "conditions": "Table 8", "method": "The binding properties of the compounds of the present invention were evaluated at one or more cloned receptors or native, tissue-derived transporters, using protocols described below.\nThe methods to determine binding affinity at native transporters are described in the following publications: 5HT transporter and NE transporter (Owens et al., 1997), and DA transporter (Javitch et al, 1984)."}, "[4]": {"tested_on": "neuropathic rats (chronic constriction nerve injury)", "experiment": "Chronic constriction nerve injury model of neuropathic pain: mechanical allodynia (Von Frey filaments)", "type": "in vivo, rat", "conditions": "for effect on withdrawal threshold of the nerve-injured hind paw (Von Frey) vs vehicle / withdrawal threshold of the nerve-injured paw to Von Frey filament challenges: 30 mg/kg i.p.; for withdrawal threshold of the nerve-injured paw to Von Frey filament challenges: Day 12 PO", "method": "The aim of this study was to assess the potential analgesic effects of Example 92 following intraperitoneal administration at the doses of 3, 10 and 30 mg/kg, respectively, in an animal model of neuropathic pain. A peripheral mononeuropathy was induced in the right hind limb of rats following a chronic constriction nerve injury (Bennett and Xie, 1988), and the development of mechanical allodynia and thermal hyperalgesia was monitored using established behavioral tests (Attal, N., et al., 1990; Hargreaves, K., et al., 1988).\nMale Sprague-Dawley rats within the weight range of 200-225 g, and approximate age 7-9 weeks, were allowed to acclimate for a minimum of 6 days prior to the start of the behavioral testing.\nAll rats underwent a chronic constriction nerve injury, and of these, those that successfully developed allodynia and hyperalgesia were allocated to treatment groups.\nThere were 5 separate treatment groups (with a minimum of 10 rats per group). The treatment groups were as follows: • Group C received Morphine at 10 mg/kg (n=10) • Group D received Vehicle for Example 92* at 1 ml/kg (n=10) (* 100% DMSO) • Group E received Example 92 at 30 mg/kg (n=10) • Group F received Example 92 at 3 mg/kg (n=10) • Group G received Example 92 at 10 mg/kg (n=10)\nThe dose volume for all treatments was 1 ml/kg. Each rat received a single i.p. dose of the test substance, reference substance or vehicle on Day 12 PO. Test substance and vehicle dosing solutions were encoded (C-G) so that the observers were unaware of the identity of the treatment groups.\nThe behavioral tests (Von Frey filament and Thermal Plantar Tests—see below) were performed on all rats on 3 separate days prior to […], to establish baseline values. The pre-surgery baseline values were calculated as the mean of the last 2 days testing (the data from the first day of testing were not included as this was classed as part of the acclimating period). The sequence of tests was always mechanical allodynia (Von Frey Test) followed by thermal hyperalgesia (Thermal Plantar Test), with a minimum 5 min period allowed between the 2 tests.\nEach animal was placed in a wire mesh cage and a series of Von Frey filaments (ranging from filament handle number 3.61 to 6.10) applied to the plantar surface of the hind paw, from below. The filaments were applied in ascending order (starting with the weakest force) and the withdrawal threshold for both the ipsilateral and contralateral hind paws was evaluated. Each filament was indented on the plantar surface of the foot to the point where it just started to bend, and this was repeated approximately 8-10 times per filament at a frequency of approximately 1 Hz. The withdrawal threshold was defined as the lowest force of two or more consecutive Von Frey filaments to elicit a reflex withdrawal response.\nThe animals were surgically prepared over 5 days. Each rat was anaesthetized with sodium pentobarbitone (60 mg/ml; 0.6 ml/kg dose, intraperitonealy; batch number 00230; expiry date 22 May 3) and then supplemented as necessary with isoflurane (1-3% in oxygen). The surface around the incision site was shaved and then sterilized with surgical spirit. Under aseptic conditions the right sciatic nerve was exposed by blunt dissection at mid-thigh level and approximately 1 cm of nerve was freed of adhering connective tissue. Four chromic cat gut (4.0) ligatures, spaced at approximately 1 mm inzervals, were then tied so as to barely constrict the nerve (as viewed under 40× magnification) to induce a peripheral mononeuropathy in the right hind limb. The overlying muscle and skin were then closed in layers using suture material, and the anesthesia discontinued. On recovery from anesthesia, the rats were re-housed with their cage mates on soft padded bedding overnight (to reduce the risk of infection) and subsequently on sawdust bedding following full recovery. The animals were allowed 4 full days to recover before the behavioral testing was recommenced. […]"}, "[5]": {"biological_target": "T4, Human 5HT1D receptor (Homo sapiens, UniProt P28221)", "T4 construct": "expressed in transfected cells", "T4 sequence (P28221 whole entry)": "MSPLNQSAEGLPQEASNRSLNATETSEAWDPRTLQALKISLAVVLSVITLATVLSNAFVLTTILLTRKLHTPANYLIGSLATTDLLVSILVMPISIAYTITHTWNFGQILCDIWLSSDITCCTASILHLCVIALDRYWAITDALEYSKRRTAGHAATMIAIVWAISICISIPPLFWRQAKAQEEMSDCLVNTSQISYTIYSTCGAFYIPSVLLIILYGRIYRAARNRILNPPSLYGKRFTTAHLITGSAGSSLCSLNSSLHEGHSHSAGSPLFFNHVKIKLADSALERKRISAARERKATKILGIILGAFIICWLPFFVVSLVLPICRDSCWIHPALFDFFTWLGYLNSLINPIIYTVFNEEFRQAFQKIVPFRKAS", "experiment": "5HT1D receptor binding ([3H]-serotonin)", "conditions": "Table 8", "method": "as §1"}}, "data": [{"smiles": "O=C1C(=Nc2cccc(C(F)(F)F)c2)c2ccccc2N1c1ccccc1", "note": "[Example 92, 1-PHENYL-3-[[3-(TRIFLUOROMETHYL)PHENYL]IMINO]-1,3-DIHYDRO-2H-INDOL-2-ONE]", "values": [{"measurement": "selectivity ratio h5HT1F (Ki h5HT1F / Ki hGAL3)", "setting": "[1]", "result": ">100"}, {"measurement": "selectivity ratio h5HT1E (Ki h5HT1E / Ki hGAL3)", "setting": "[2]", "result": ">100"}, {"measurement": "selectivity ratio rDA Uptk (Ki rDA Uptk / Ki hGAL3)", "setting": "[3]", "result": ">100"}, {"measurement": "effect on withdrawal threshold of the nerve-injured hind paw (Von Frey) vs vehicle", "setting": "[4]; 30 min PD", "result": "significantly increased"}, {"measurement": "withdrawal threshold of the nerve-injured paw to Von Frey filament challenges", "setting": "[4]; 30 min PD, vehicle 4.82±2.77 g, P≦0.05", "result": "25.98 ± 8.25", "unit": "g"}, {"measurement": "effect on withdrawal threshold of the nerve-injured hind paw (Von Frey) vs vehicle", "setting": "[4]; 90 min PD", "result": "not found to be significant"}, {"measurement": "withdrawal threshold of the nerve-injured paw to Von Frey filament challenges", "setting": "[4]; 90 min PD, vehicle 2.43±1.48 g", "result": "11.73 ± 6.43", "unit": "g"}, {"measurement": "responses of the uninjured (contralateral) left paw (Von Frey) vs vehicle", "setting": "[4]; 3, 10, 30 mg/kg i.p., any time point", "result": "No significant changes"}, {"measurement": "effect on withdrawal threshold of the nerve-injured paw (Von Frey) vs vehicle", "setting": "[4]; 3 or 10 mg/kg i.p., any time point", "result": "no significant effect"}, {"measurement": "selectivity ratio h5HT1D (Ki h5HT1D / Ki hGAL3)", "setting": "[5]", "result": ">100"}]}]}
